In patent US4997849A, “Microbial transformation of simvastatin” (Merck & Co., Inc., priority 1989, dated 1991):

What was measured:
HMG-CoA reductase [1] = target: T1, HMG-CoA reductase (Rattus norvegicus, UniProt P51639); experiment: intrinsic HMG-CoA reductase inhibition activity, in vitro protocol of J. Med. Chem., 1985, 28, page 347; format: biochemical; conditions: potassium salt
T1 construct: from tissue
T1 sequence (P51639 1-887): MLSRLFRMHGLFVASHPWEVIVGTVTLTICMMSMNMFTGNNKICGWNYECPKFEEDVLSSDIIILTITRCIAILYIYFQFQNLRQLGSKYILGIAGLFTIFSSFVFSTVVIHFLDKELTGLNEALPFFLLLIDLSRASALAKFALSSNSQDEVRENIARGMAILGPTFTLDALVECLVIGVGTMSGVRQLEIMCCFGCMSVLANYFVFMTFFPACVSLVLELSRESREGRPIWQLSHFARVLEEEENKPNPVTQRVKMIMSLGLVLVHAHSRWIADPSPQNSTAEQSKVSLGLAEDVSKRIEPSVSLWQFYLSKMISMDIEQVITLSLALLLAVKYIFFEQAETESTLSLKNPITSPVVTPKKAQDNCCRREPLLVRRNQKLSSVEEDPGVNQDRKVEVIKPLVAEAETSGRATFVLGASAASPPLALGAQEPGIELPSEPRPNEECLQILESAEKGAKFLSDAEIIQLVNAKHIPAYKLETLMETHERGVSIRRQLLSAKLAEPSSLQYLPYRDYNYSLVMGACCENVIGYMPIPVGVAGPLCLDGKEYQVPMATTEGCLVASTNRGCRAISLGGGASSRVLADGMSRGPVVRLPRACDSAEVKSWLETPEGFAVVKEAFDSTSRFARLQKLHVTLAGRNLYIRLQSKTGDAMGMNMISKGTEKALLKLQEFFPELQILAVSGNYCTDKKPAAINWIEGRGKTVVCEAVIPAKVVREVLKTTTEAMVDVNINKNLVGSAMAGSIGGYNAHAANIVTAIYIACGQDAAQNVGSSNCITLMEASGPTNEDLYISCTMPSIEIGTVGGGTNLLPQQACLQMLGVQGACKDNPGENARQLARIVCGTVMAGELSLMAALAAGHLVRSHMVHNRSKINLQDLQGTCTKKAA
Experimental: The intrinsic HMG-CoA reductase inhibition activity of the claimed compounds is measured in the in vitro protocol described in J. Med. Chem., 1985, 28, page 347.

[2] = reversion of free dihydroxy acid to parent lactone on standing; format: physicochemical; conditions: on standing at room temperature
Experimental: The sodium salt of the compound II from Example 8 is dissolved in 2 ml of ethanol-water (1:1; v:v) and added to 10 ml of 0.1N hydrochloric acid from which the dihydroxy acid is extracted with ethyl acetate. The organic extract is washed once with water, dried (Na2 SO4), and evaporated in vacuo with a bath temperature not exceeding 30° C.

HMG-CoA reductase [3] = target: T2, HMG-CoA reductase (Homo sapiens, UniProt P04035); conditions: relative to lovastatin; cited from earlier work
T2 sequence (P04035 1-888): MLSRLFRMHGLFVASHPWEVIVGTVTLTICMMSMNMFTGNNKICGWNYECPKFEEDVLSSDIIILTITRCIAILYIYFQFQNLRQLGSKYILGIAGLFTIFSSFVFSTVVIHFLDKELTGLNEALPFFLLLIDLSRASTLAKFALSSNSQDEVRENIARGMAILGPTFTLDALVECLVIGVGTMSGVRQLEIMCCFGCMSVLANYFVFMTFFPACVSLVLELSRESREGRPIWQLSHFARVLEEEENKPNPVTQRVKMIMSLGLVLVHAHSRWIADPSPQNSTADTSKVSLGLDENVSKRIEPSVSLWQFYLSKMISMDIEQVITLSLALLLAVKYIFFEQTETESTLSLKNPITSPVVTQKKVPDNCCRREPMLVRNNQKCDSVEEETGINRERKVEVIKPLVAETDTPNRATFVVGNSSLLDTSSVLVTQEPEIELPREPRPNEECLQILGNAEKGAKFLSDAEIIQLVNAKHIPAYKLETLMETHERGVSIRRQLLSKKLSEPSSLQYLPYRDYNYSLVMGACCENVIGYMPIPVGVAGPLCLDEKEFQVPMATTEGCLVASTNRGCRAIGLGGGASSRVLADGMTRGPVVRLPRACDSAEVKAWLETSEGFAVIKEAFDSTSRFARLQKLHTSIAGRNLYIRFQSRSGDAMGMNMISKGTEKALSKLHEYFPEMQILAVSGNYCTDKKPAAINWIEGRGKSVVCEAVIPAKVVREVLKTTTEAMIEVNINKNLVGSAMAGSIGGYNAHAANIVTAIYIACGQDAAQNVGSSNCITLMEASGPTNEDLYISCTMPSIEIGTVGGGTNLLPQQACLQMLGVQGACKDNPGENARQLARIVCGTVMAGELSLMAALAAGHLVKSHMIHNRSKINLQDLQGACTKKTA

CC1C=Cc2cc(CO)ccc2C1CC[C@@H](O)C[C@@H](O)CC(=O)O (stereo partly drawn)
IC50 (HMG-CoA reductase [1]): 897 nM

CC1C=Cc2cc(CO)ccc2C1CC[C@@H](O)C[C@@H](O)CC(=O)O (stereo partly drawn) [dihydroxy acid derivative]
reversion to the corresponding parent lactone [2]: slowly reverts to the corresponding parent lactone on standing at room temperature

CCC(C)(C)C(=O)O[C@H]1C[C@@H](C)C=C2C=C[C@H](C)[C@H](CC[C@@H]3C[C@@H](O)CC(=O)O3)[C@H]21 [simvastatin]
HMG-CoA reductase inhibitor potency compared with lovastatin (HMG-CoA reductase [3]): even more potent HMG-CoA reductase inhibitor than lovastatin
